{
  "source": "ChEMBL document CHEMBL2321873",
  "about": "“1-(4-Phenylpiperazin-1-yl)-2-(1H-pyrazol-1-yl)ethanones as novel CCR1 antagonists” (Bioorg Med Chem Lett, 2013)",
  "key": {"[1]": {"target": "Atypical chemokine receptor 3 (Homo sapiens) (UniProt P25106)", "sequence (P25106 whole entry)": "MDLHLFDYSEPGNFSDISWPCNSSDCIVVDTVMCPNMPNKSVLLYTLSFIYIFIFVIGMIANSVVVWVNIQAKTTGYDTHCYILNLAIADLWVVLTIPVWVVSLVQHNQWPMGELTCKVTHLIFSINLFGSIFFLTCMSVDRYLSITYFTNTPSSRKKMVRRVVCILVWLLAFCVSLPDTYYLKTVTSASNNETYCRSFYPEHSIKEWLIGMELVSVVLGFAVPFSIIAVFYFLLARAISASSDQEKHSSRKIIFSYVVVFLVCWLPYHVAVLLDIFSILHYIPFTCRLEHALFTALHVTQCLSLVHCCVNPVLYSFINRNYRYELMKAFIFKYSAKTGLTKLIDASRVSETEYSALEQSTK", "test": "Antagonist activity at CXCR7 (unknown origin) assessed as inhibition of chemotaxis at 10 uM"}, "[2]": {"target": "T1, G protein-coupled receptor (Human herpesvirus 8) (UniProt Q76SF8)", "T1 sequence (whole entry)": "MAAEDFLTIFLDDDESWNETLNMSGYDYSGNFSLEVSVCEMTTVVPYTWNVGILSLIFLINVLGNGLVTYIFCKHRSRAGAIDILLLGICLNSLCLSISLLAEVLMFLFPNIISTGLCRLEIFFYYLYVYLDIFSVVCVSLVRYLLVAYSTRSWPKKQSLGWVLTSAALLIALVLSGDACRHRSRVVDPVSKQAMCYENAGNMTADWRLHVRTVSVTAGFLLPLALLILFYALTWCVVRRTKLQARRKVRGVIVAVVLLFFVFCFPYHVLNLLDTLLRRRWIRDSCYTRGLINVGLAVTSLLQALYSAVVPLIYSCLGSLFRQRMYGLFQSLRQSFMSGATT", "test": "Binding affinity to HHV8 ORF74 at 10 uM by radioligand displacement assay", "settings": "Human gammaherpesvirus 8"}, "[3]": {"target": "C-C chemokine receptor type 2 (Homo sapiens) (UniProt P41597)", "sequence (P41597 whole entry, looked up)": "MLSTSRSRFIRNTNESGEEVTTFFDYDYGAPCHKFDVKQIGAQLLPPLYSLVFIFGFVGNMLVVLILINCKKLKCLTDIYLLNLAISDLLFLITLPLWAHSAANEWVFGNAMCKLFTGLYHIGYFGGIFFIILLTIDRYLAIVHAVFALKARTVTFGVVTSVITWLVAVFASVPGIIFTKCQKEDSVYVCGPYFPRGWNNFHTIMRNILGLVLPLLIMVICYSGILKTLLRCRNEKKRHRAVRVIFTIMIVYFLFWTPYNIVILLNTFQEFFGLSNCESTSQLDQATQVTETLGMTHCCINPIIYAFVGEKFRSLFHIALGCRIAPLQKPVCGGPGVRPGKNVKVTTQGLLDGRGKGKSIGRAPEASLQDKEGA", "test": "Antagonist activity at CCR2 (unknown origin) assessed as inhibition of chemotaxis at 10 uM"}, "[4]": {"target": "C-C chemokine receptor type 5 (Homo sapiens) (UniProt P51681)", "sequence (P51681 whole entry, looked up)": "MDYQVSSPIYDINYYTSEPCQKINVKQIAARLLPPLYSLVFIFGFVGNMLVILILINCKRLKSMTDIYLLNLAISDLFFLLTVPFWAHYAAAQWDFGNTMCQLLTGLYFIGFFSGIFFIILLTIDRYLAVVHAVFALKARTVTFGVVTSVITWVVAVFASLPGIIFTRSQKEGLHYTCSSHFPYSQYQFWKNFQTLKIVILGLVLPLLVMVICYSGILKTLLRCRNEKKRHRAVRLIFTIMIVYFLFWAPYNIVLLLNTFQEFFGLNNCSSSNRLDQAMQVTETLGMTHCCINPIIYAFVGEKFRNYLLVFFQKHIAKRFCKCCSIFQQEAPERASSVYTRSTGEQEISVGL", "test": "Antagonist activity at CCR5 (unknown origin) assessed as inhibition of chemotaxis at 10 uM"}, "[5]": {"target": "Voltage-gated inwardly rectifying potassium channel KCNH2 (Homo sapiens, UniProt Q12809)", "sequence (Q12809 whole entry)": "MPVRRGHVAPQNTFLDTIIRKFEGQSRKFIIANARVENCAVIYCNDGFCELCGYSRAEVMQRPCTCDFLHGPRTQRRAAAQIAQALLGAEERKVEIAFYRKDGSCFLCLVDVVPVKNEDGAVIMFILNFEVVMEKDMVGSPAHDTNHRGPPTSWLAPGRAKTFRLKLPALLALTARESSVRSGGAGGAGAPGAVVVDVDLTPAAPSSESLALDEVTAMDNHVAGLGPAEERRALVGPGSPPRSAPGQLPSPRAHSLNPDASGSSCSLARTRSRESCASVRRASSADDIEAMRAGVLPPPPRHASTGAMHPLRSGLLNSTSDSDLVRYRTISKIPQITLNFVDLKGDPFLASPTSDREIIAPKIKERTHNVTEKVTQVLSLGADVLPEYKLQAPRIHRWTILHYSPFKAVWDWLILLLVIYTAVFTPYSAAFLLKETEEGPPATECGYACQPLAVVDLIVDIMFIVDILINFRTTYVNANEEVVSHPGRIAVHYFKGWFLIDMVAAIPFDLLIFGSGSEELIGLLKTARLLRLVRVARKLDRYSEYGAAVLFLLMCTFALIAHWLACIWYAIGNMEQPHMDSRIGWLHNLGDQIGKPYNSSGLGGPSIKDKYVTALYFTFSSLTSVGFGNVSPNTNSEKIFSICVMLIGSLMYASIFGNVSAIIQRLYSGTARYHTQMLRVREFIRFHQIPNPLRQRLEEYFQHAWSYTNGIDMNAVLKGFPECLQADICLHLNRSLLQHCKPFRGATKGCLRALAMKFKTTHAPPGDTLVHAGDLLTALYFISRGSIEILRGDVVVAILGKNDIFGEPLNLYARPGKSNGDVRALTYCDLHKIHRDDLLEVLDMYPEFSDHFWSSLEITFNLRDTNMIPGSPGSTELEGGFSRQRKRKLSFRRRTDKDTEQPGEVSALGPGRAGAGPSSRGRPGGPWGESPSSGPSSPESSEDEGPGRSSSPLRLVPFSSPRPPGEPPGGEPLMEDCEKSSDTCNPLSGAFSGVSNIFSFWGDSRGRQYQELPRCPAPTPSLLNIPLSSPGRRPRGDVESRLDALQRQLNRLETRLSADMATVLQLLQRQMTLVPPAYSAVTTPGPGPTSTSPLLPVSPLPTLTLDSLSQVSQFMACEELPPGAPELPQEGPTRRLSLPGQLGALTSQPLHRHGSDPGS", "test": "Binding affinity to human ERG by patch clamp assay"}, "[6]": {"target": "T2, C-X-C chemokine receptor type 2 (Homo sapiens) (UniProt P25025)", "T2 sequence (whole entry)": "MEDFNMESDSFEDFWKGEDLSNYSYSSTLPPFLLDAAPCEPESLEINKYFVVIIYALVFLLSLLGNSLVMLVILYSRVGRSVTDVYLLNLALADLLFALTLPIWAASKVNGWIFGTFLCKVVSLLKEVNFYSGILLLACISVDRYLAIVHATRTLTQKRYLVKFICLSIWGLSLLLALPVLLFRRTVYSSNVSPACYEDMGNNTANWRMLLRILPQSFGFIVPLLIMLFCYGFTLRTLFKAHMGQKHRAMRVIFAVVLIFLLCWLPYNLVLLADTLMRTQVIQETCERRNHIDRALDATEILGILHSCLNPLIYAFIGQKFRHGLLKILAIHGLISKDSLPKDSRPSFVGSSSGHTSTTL", "test": "Antagonist activity at CXCR2 (unknown origin) assessed as inhibition of calcium flux at 10 uM", "type": "functional"}, "[7]": {"target": "T3, C-C chemokine receptor type 7 (Homo sapiens) (UniProt P32248)", "T3 sequence (whole entry)": "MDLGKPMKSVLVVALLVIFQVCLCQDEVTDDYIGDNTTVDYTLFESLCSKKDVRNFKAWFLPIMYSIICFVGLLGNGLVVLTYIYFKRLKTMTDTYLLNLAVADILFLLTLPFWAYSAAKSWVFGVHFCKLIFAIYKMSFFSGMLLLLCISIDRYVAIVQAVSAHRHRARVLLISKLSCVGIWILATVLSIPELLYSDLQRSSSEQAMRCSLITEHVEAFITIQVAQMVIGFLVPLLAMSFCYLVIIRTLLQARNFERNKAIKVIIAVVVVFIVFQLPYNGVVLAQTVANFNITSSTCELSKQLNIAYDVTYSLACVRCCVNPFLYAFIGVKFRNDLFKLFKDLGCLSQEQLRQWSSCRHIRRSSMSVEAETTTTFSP", "test": "Binding affinity to CCR7 (unknown origin) at 10 uM by radioligand displacement assay"}, "[8]": {"target": "C-C chemokine receptor type 5 (Homo sapiens) (UniProt P51681)", "test": "Binding affinity to CCR5 (unknown origin) at 10 uM by radioligand displacement assay"}, "[9]": {"target": "T4, C-C chemokine receptor type 3 (Homo sapiens) (UniProt P51677)", "T4 sequence (whole entry)": "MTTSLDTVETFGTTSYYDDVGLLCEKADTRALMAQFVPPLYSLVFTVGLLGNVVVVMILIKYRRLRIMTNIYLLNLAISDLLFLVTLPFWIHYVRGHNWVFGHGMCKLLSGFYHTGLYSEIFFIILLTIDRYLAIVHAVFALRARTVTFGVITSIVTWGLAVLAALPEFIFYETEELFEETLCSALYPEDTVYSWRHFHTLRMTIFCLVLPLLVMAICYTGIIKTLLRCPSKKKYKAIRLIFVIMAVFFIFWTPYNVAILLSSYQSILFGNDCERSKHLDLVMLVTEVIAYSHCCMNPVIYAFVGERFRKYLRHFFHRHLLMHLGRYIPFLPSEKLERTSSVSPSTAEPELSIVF", "test": "Antagonist activity at CCR3 (unknown origin) assessed as inhibition of calcium flux at 10 uM", "type": "functional"}, "[10]": {"target": "T5, Atypical chemokine receptor 1 (Homo sapiens) (UniProt Q16570)", "T5 sequence (whole entry)": "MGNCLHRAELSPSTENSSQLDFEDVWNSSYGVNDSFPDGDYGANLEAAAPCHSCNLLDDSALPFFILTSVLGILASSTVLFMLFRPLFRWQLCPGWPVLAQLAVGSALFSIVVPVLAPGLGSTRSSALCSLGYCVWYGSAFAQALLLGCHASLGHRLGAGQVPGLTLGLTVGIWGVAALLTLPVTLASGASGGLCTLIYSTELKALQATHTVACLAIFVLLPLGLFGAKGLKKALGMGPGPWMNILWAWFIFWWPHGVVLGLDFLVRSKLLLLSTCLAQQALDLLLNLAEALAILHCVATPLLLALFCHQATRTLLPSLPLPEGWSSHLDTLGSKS", "test": "Binding affinity to Duffy (unknown origin) at 10 uM by radioligand displacement assay"}, "[11]": {"target": "C-C chemokine receptor type 8 (Homo sapiens) (UniProt P51685)", "sequence (P51685 whole entry)": "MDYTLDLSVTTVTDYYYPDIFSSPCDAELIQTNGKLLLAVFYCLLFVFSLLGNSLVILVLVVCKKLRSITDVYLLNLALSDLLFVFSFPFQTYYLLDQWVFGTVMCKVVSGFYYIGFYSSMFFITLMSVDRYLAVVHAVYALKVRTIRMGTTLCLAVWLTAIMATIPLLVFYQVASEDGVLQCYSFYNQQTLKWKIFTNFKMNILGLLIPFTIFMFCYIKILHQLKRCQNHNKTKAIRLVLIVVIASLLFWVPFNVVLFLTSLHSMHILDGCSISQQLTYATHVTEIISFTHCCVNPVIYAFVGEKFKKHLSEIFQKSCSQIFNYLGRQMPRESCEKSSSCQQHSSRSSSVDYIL", "test": "Binding affinity to CCR8 (unknown origin) at 10 uM by radioligand displacement assay"}, "Cytochrome P450 1A2": {"target": "Cytochrome P450 1A2 (Homo sapiens, UniProt P05177)", "sequence (P05177 whole entry)": "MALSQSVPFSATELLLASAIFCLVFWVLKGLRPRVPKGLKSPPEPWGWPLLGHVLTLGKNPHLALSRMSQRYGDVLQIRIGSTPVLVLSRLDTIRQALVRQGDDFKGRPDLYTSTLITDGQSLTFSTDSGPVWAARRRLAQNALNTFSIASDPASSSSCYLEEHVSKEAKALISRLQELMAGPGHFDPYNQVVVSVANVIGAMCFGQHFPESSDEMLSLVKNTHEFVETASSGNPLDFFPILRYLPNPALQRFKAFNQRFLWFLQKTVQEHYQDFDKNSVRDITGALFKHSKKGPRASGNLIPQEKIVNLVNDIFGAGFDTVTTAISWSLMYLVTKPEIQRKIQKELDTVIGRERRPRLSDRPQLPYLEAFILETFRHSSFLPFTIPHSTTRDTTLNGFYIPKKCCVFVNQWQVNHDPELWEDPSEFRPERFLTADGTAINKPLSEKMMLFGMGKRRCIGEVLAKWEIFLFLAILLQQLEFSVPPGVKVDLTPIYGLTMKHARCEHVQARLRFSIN", "test": "Competitive inhibition of CYP1A2 (unknown origin)", "type": "ADME"}, "[12]": {"target": "T6, CX3C chemokine receptor 1 (Homo sapiens) (UniProt P49238)", "T6 sequence (whole entry)": "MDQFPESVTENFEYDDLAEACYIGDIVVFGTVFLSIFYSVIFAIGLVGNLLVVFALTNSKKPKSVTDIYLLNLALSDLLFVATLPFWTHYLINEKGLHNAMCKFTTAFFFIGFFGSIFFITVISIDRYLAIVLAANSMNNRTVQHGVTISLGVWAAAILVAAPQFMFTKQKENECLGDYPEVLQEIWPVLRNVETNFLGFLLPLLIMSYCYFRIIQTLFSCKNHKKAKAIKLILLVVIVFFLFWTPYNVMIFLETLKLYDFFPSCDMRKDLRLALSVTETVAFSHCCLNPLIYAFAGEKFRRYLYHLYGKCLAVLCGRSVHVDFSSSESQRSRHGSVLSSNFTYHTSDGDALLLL", "test": "Antagonist activity at CX3CR1 (unknown origin) assessed as inhibition of chemotaxis at 10 uM"}, "Salmonella typhimurium": {"test_system": "Salmonella typhimurium", "test": "Genotoxicity in Salmonella typhimurium by Ames test in presence of S9 fractions", "type": "toxicity, organism-based, S9 Fraction", "settings": "salmonella enterica subsp. enterica serovar typhimurium"}},
  "note": "pIC50: −log10 of the molar value. Active and inactive are the calls of the source. The calls are words filed in the database; no cut-off is given here.",
  "data": [
    {"smiles": "COc1cc(N2CCN(C(=O)Cn3nc(C(F)(F)F)c(Cl)c3C)CC2)ccc1Cl", "values": [
      {"measurement": "inhibition", "setting": "[1]", "value": "inactive"},
      {"measurement": "Activity", "setting": "[2]", "value": "inactive"},
      {"measurement": "inhibition", "setting": "[3]", "value": "inactive"},
      {"measurement": "inhibition", "setting": "[4]", "value": "inactive"},
      {"measurement": "pIC50", "setting": "[5]", "value": 4.80},
      {"measurement": "inhibition", "setting": "[6]", "value": "inactive"},
      {"measurement": "Activity", "setting": "[7]", "value": "inactive"},
      {"measurement": "Activity", "setting": "[8]", "value": "inactive"},
      {"measurement": "inhibition", "setting": "[9]", "value": "inactive"},
      {"measurement": "Activity", "setting": "[10]", "value": "inactive"},
      {"measurement": "Activity", "setting": "[11]", "value": "inactive"},
      {"measurement": "pIC50", "setting": "Cytochrome P450 1A2", "value": "< 5.00"},
      {"measurement": "inhibition", "setting": "[12]", "value": "inactive"},
      {"measurement": "Activity", "setting": "Salmonella typhimurium", "value": "Non-toxic"}
    ]}
  ]
}
